{
  "source": "patent US20190226949A1",
  "about": "“IRIDIUM COMPLEXES FOR CELLULAR IMAGING” (UNIVERSITY OF SOUTH AUSTRALIA, priority 2016, published 2019)",
  "key": {"[1]": {"settings": "previously published complex; cited from earlier work"}, "[2]": {"assay": "Lipophilicity by shake-flask method (7.4-buffered PBS / n-octanol)", "format": "physicochemical", "settings": "7.4-buffered PBS solution and n-octanol", "protocol": "The lipophilicity of the iridium complexes was measured by the shake-flask method using 7.4-buffered PBS and n-octanol as solvents (Table 2). The values range between 1.49 and 2.68 are typical for cyclometalated iridium complexes that have not been bioconjugated. […] In general, neutral complexes have log D7.4 values above 2.00 and there is an increased in lipophilicity of extending the tetrazolato ligand with the addition of a phenyl spacer in [Ir(ppy)2(TzPyPhCN)], or by extending the conjugation on passing from pyridine to quinoline or isoquinoline for [Ir(ppy)2(TzQn)] and [Ir(ppy)2(TziQn)]. Methylation in all cases reduces lipophilicity to log D7.4 values […], with the same trend within the family of methylated complexes as previously observed for the neutral ones."}, "[3]": {"system": "prostate cancer LNCaP cells", "assay": "Staining of prostate cells with lipid dyes, LNCaP", "format": "cell-based, Human", "settings": "30 minutes", "protocol": "(§1) The fluorescent dyes, Filipin and BODIPY® 493/503, were incubated for 30 minutes with each of the four prostate cell lines (i.e. PNT1a, DU145, 22RV1 and LNCaP), fixed in 4% paraformaldehyde and imaged under confocal microscopy, which was supplemented with two-photon Mai-Tai® and Argon lasers. Prostate cell lines grown on coverslips were stained with ReZolve-L1™ and IraZolve [Ir(ppy)2(TzPyCN)] in serum-free media for 30 minutes at 37° C. and 5% CO2 and imaged in live mode, avoiding the process of fixation. From this experiment, different staining patterns between prostate cell lines and the fluorescent dyes were clearly seen (FIG. 12). For example, the level of diffuse cytosolic staining vs membrane staining with Filipin varied between cell lines (FIG. 12 a-d). […] Differences in the 22RV1 and LNCaP staining pattern in comparison to PNT1a and DU145 were apparent with BODIPY® 493/503 fluorescent dye. […] The fluorescence of ReZolve-L1™ was low in non-malignant control PNT1a cells, when compared to prostate cancer cells (FIG. 12i-l). […] These positive results prompted us to analyse staining of the prostate cells with the fluorescent dye IraZolve (FIG. 12m-p). […] In contrast, the intensity of staining in the malignant cell lines DU145, 22RV1 and LNCaP with ReZolve-L1™ was significant. […]"}, "[4]": {"assay": "Photophysical measurements (absorption, emission, lifetime, quantum yield) in diluted solutions", "format": "physicochemical", "excerpt": "A summary of the photophysical data for the complexes as diluted solutions (10^−5 M) in dichloromethane, water, PBS, lysosomal fluid solution, and ethyl laurate is reported in Table 1. All the listed aqueous media also contain 0.1% DMSO to favour the solubilisation of the complexes. The various solvents have been chosen to identify potential modulations on the photophysical behaviour of the iridium complexes in diverse cellular environments such as cytoplasm, endosome/lysosomes acidic organelles, or lipid-rich compartments like membranes, endoplasmic reticulum, and lipid droplets. In general, the photophysical characteristics were measured in aerated solutions to take into account the presence of oxygen in live cells. On the other hand, dichloromethane solutions were compared as aerated and degassed to confirm oxygen sensitivity and triplet character of the excited states of the complexes.\nAbsorption spectra were recorded at room temperature using a Cary 4000 UV/Vis spectrometer. Uncorrected steady state emission and excitation spectra were recorded on an Edinburgh FLSP980-S2S2-stm spectrometer equipped with: i) a temperature-monitored cuvette holder; ii) 450 W Xenon arc lamp; iii) double excitation and emission monochromators; iv) a Peltier cooled Hamamatsu R928P photomultiplier tube (spectral range 200-870 nm). Emission and excitation spectra were corrected for source intensity (lamp and grating) and emission spectral response (detector and grating) by a calibration curve supplied with the instrument. According to the approach described by Demas and Crosby, luminescence quantum yields (Φem) were measured in optically dilute solutions (O.D.<0.1 at excitation wavelength) obtained from absorption spectra on a wavelength scale [nm] and compared to the reference emitter by the following equation: […]\nwhere A is the absorbance at the excitation wavelength (λ), I is the intensity of the excitation light at the excitation wavelength (λ), n is the refractive index of the solvent, D is the integrated intensity of the luminescence and Φ is the quantum yield. The subscripts r and x refer to the reference and the sample, respectively. The quantum yield determinations were performed at identical excitation wavelength for the sample and the reference, therefore cancelling the I(λr)/I(λx) term in the equation. The quantum yields of complexes were measured against Rubipy in water (Φr=0.028). Emission lifetimes (z) were determined with the time correlated single photon counting technique (TCSPC) with the same Edinburgh FLSP980-S2S2-stm spectrometer using either a pulsed picosecond LED (EPLED/EPL 377 nm, FHWM<800 ps) or a microsecond flashlamp. The goodness of fit was assessed by minimising the reduced χ^2 function and by visual inspection of the weighted residuals. The solvents used for the preparation of the solutions for the photophysical investigations were of LR grade and the water was deionised. Degassing of the dichlorometane solutions was performed using the freeze-pump-thaw method. Experimental uncertainties are estimated to be ±8% for lifetime determinations, ±20% for quantum yields, ±2 nm and ±5 nm for absorption and emission peaks, respectively."}, "[5]": {"system": "non-malignant control PNT1a cells", "assay": "Staining of prostate cells with lipid dyes, PNT1a", "format": "cell-based, Human", "settings": "PNT1a fixed in 4% paraformaldehyde, 30 minutes", "protocol": "as §1"}, "[6]": {"system": "prostate cancer 22RV1 cells", "assay": "Staining of prostate cells with lipid dyes, 22RV1", "format": "cell-based, Human", "settings": "22RV1 fixed in 4% paraformaldehyde, 30 minutes", "protocol": "as §1"}, "[7]": {"system": "prostate cancer DU145 cells", "assay": "Staining of prostate cells with lipid dyes, DU145", "format": "cell-based, Human", "settings": "DU145 fixed in 4% paraformaldehyde, 30 minutes", "protocol": "as §1"}},
  "note": "Several values for one entry are separate records, joined by “and”; a condition that tells them apart may be missing. Identical values can stand only once. Entries after “also recorded” stand apart in the source; their conditions may differ.",
  "data": [
    {"compound": "c1cc[c]2c(c1)-c1cccc[n+]1[Ir]213([c]2ccccc2-c2cccc[n+]21)[n]1nnnc1-c1cccc[n+]13", "note": "[[Ir(ppy)2(TzPy)]]", "values": [
      {"measurement": "λem, structured emission", "setting": "[1]", "value": "481 nm and 510 nm"}
    ]},
    {"compound": "N#Cc1ccc2[n+](c1)[Ir]13([c]4ccccc4-c4cccc[n+]41)([c]1ccccc1-c1cccc[n+]13)[n]1nnnc1-2", "note": "[[Ir(ppy)2(TzPyCN)]]", "values": [
      {"measurement": "logD7.4, distribution coefficient", "setting": "[2]", "value": "2.09 ± 0.06"},
      {"measurement": "staining pattern / intensity", "setting": "[3]; live LNCaP, 20 μM, serum-free media, listed as IraZolve", "value": "stains the endoplasmic reticulum, where both phospholipids and triacylglycerides are synthesised, and it also co-localises with fatty acids in lipid droplets; also recorded: almost identical to that observed for ReZolve-L1™; also recorded: significantly greater"},
      {"measurement": "Absorption λabs [nm] (10^4ε [M^−1cm^−1])", "setting": "[4]; DCM, 10^−5 M", "value": "263 (6.57) nm (10^4ε [M^−1cm^−1]) and 339 (1.59) nm (10^4ε [M^−1cm^−1]) and 382 (1.09) nm (10^4ε [M^−1cm^−1]) and 420 (0.58) nm (10^4ε [M^−1cm^−1])"},
      {"measurement": "Emission λem", "setting": "[4]; DCM, 298K, 10^−5 M", "value": 618, "unit": "nm"},
      {"measurement": "τaer, excited state lifetime (relative weight in parentheses)", "setting": "[4]; DCM, aerated, 298K", "value": 131, "unit": "ns"},
      {"measurement": "Φaer, quantum yield", "setting": "[4]; DCM, aerated, versus Ru(bpy)3^2+ in water (φr = 0.028)", "value": 0.055},
      {"measurement": "τdeaer, excited state lifetime (relative weight in parentheses)", "setting": "[4]; DCM, deaerated, 298K", "value": 529, "unit": "ns"},
      {"measurement": "Φdeaer, quantum yield", "setting": "[4]; DCM, deaerated, versus Ru(bpy)3^2+ in water (φr = 0.028)", "value": 0.397},
      {"measurement": "knr", "setting": "[4]; DCM, calculated as [(1 − φ)/τ] from deaerated solutions", "value": "1.140 10^6s^−1"},
      {"measurement": "kr", "setting": "[4]; DCM, calculated as [φ/τ] from deaerated solutions", "value": "7.505 10^5s^−1"},
      {"measurement": "Emission λem", "setting": "[4]; H2O with 0.1% DMSO, 298K, aerated", "value": 618, "unit": "nm"},
      {"measurement": "Φ, quantum yield", "setting": "[4]; H2O with 0.1% DMSO, aerated, versus Ru(bpy)3^2+ in water", "value": 0.047}
    ]},
    {"compound": "CC1=CC(C)=[N+]2C1=C(C)c1c(C)cc(C)n1[B-]2(F)F", "note": "[BODIPY® 493/503, reference compound]", "values": [
      {"measurement": "staining pattern", "setting": "[5]", "value": "localised staining to lipid droplets"},
      {"measurement": "staining pattern", "setting": "[6]", "value": "diffused cytosolic staining and localised staining to lipid droplets"},
      {"measurement": "staining pattern", "setting": "[7]", "value": "localised staining to lipid droplets"}
    ]},
    {"compound": "CCCCC[C@@H](O)[C@H]1C(=O)O[C@H](C)[C@@H](O)/C=C/C=C/C=C/C=C/C=C(\\C)[C@@H](O)C[C@H](O)C[C@H](O)C[C@H](O)C[C@H](O)C[C@H](O)C[C@@H]1O", "note": "[Filipin, reference compound]", "values": [
      {"measurement": "staining pattern", "setting": "[3]; LNCaP fixed in 4% paraformaldehyde", "value": "a number of small vesicles were brightly stained"},
      {"measurement": "staining pattern", "setting": "[5]", "value": "a number of small vesicles were brightly stained"},
      {"measurement": "staining pattern", "setting": "[6]", "value": "quite bright vesicular and plasma membrane staining"},
      {"measurement": "staining pattern", "setting": "[7]", "value": "relatively low level"}
    ]}
  ]
}
